From ChEMBL document CHEMBL6096702, “Discovery of a Novel p38α-MK2 Complex Inhibitor as a Potential Choice for Autoimmune Diseases” (J Med Chem, 2025)
Values after ≈ are worked out from the molar mass of the structure shown. Active and inactive are the calls of the source. No cut-off for these calls is given here.

Assays:
[1] = Inhibition of N-terminal GST-tagged wildtype human P38alpha (4 to 152 residues) extracted from Escherichia coli/GST-tagged MK2 (unknown origin) assessed as reduction in HSP27 phosphorylation incubated for 2 hrs in presence of ATP and HSP27-FITC peptide by fluorescence polarization based IMAP assay
[2] = Inhibition of N-terminal GST-tagged wildtype human P38alpha (4 to 152 residues) extracted from Escherichia coli/GST-tagged PRAK (unknown origin) assessed as reduction in HSP27 phosphorylation incubated for 2 hrs in presence of ATP and HSP27-FITC peptide by fluorescence polarization based IMAP assay
[3] = Selectivity ratio of IC50 for inhibition of N-terminal GST-tagged wildtype human P38alpha (4 to 152 residues) extracted from Escherichia coli/GST-tagged PRAK (unknown origin) to IC50 for inhibition of N-terminal GST-tagged wildtype human P38alpha (4 to 152 residues) extracted from Escherichia coli/GST-tagged MK2 (unknown origin)
[4] = AUClast in male Sprague-Dawley rat at 1 mg/kg, iv measured after 24 hrs by LC-MS/MS analysis; format: ADME, organism-based; details: in vivo
[5] = Clearance in male Sprague-Dawley rat at 1 mg/kg, iv measured after 24 hrs by LC-MS/MS analysis; format: ADME, organism-based; details: in vivo
[6] = Volume of distribution at steady state in male Sprague-Dawley rat at 1 mg/kg, iv measured after 24 hrs by LC-MS/MS analysis; format: ADME, organism-based; details: in vivo, read-out: Vdss
[7] = Half-life in male Sprague-Dawley rat at 1 mg/kg, iv measured after 24 hrs by LC-MS/MS analysis; format: ADME, organism-based; details: in vivo
[8] = MRT in male Sprague-Dawley rat at 1 mg/kg, iv measured after 24 hrs by LC-MS/MS analysis; format: ADME, organism-based; details: in vivo
[9] = Cmax in male Sprague-Dawley rat at 2 mg/kg, po measured after 24 hrs by LC-MS/MS analysis; format: ADME, organism-based; details: in vivo
[10] = AUClast in male Sprague-Dawley rat at 2 mg/kg, po measured after 24 hrs by LC-MS/MS analysis; format: ADME, organism-based; details: in vivo
[11] = Oral bioavailability in male Sprague-Dawley rat at 2 mg/kg measured after 24 hrs by LC-MS/MS analysis; format: ADME, organism-based; details: in vivo
[12] = AUClast in male Beagle dog at 1 mg/kg, iv measured after 24 hrs by LC-MS/MS analysis; format: ADME, organism-based, Canis lupus familiaris; details: in vivo
[13] = Clearance in male Beagle dog at 1 mg/kg, iv measured after 24 hrs by LC-MS/MS analysis; format: ADME, organism-based, Canis lupus familiaris; details: in vivo
[14] = Volume of distribution at steady state in male Beagle dog at 1 mg/kg, iv measured after 24 hrs by LC-MS/MS analysis; format: ADME, organism-based, Canis lupus familiaris; details: in vivo, read-out: Vdss
[15] = Half-life in male Beagle dog at 1 mg/kg, iv measured after 24 hrs by LC-MS/MS analysis; format: ADME, organism-based, Canis lupus familiaris; details: in vivo
[16] = MRT in male Beagle dog at 1 mg/kg, iv measured after 24 hrs by LC-MS/MS analysis; format: ADME, organism-based, Canis lupus familiaris; details: in vivo
[17] = Cmax in male Beagle dog at 2 mg/kg, po measured after 24 hrs by LC-MS/MS analysis; format: ADME, organism-based, Canis lupus familiaris; details: in vivo
[18] = AUClast in male Beagle dog at 2 mg/kg, po measured after 24 hrs by LC-MS/MS analysis; format: ADME, organism-based, Canis lupus familiaris; details: in vivo
[19] = Oral bioavailability in male Beagle dog at 2 mg/kg measured after 24 hrs by LC-MS/MS analysis; format: ADME, organism-based, Canis lupus familiaris; details: in vivo
PBMC [20] = assay: Inhibition of LPS-induced TNF-alpha production in human PBMC cells at 0.01 to 10000 nM preincubated with compound for 1 hrs followed by LPS addition and measured after 4 hrs; format: functional, cell-based; details: dose 0.01-10000 nM, time 5.0 hrs
PBMC [21] = assay: Inhibition of LPS-induced IL-6 production in human PBMC cells at 0.01 to 10000 nM preincubated with compound for 1 hrs followed by LPS addition and measured after 4 hrs; format: functional, cell-based; details: dose 0.01-10000 nM, time 5.0 hrs
PBMC [22] = assay: Inhibition of LPS-induced IL-8 production in human PBMC cells at 0.01 to 10000 nM preincubated with compound for 1 hrs followed by LPS addition and measured after 4 hrs; format: functional, cell-based; details: dose 0.01-10000 nM, time 5.0 hrs
[23] = Solubility of compound in PBS at pH 7.4 measured after 4 to 24 hrs by LC-MS analysis; format: physicochemical; details: time 4-24 hrs
[24] = Half-life in female Lewis rat at 1 mg/kg, po measured after 24 hrs by LC-MS/MS analysis; format: ADME, organism-based; details: in vivo
[25] = Cmax in female Lewis rat at 1 mg/kg, po measured after 24 hrs by LC-MS/MS analysis; format: ADME, organism-based; details: in vivo
[26] = AUC (0 to 24 hrs) in female Lewis rat at 1 mg/kg, po measured after 24 hrs by LC-MS/MS analysis; format: ADME, organism-based; details: in vivo
[27] = Half-life in female Lewis rat at 3 mg/kg, po measured after 24 hrs by LC-MS/MS analysis; format: ADME, organism-based; details: in vivo
[28] = Cmax in female Lewis rat at 3 mg/kg, po measured after 24 hrs by LC-MS/MS analysis; format: ADME, organism-based; details: in vivo
[29] = AUC (0 to 24 hrs) in female Lewis rat at 3 mg/kg, po measured after 24 hrs by LC-MS/MS analysis; format: ADME, organism-based; details: in vivo
Rattus norvegicus = assay: Antiarthritic activity in Mycobacterium tuberculosis H37R-induced female Lewis rat model of arthritis assessed as reduction in paw inflammation at 3 mg/kg, po administered twice daily for 15 days starting from day 13 after adjuvant administration by micro-CT analysis; format: functional, organism-based; details: time 15.0 day
[30] = Inhibition of LPS-induced TNF-alpha production in human PBMC cells preincubated with compound for 1 hrs followed by LPS addition and measured after 4 hrs; format: functional, cell-based
[31] = Inhibition of LPS-induced IL-1beta production in human PBMC cells preincubated with compound for 1 hrs followed by LPS addition and measured after 4 hrs; format: functional, cell-based

| Structure (SMILES) | IC50 [1] | IC50 [2] | Ratio IC50 [3] | AUC(0-t) at 24 h [4] | clearance [5] | Vd [6] | half-life [7] | MRT [8] | Cmax [9] | AUC(0-t) at 24 h [10] | bioavailability [11] | further results |
| --- | --- | --- | --- | --- | --- | --- | --- | --- | --- | --- | --- | --- |
| Cc1cnc(-c2cccc(C(C)(C)O)c2F)c(F)c1-n1c(C)cc(O[C@@H](C)c2ncc(F)cc2F)c(Cl)c1=O | 0.7 nM | 23 nM | 33 | – | – | – | – | – | – | – | – | – |
| Cc1cnc(-c2cc(C(C)(C)O)ccc2F)c(F)c1-n1c(C)cc(OCc2ncc(F)cc2F)c(Cl)c1=O | 17.2 nM | 2.9 nM | 0.2 | – | – | – | – | – | – | – | – | – |
| Cc1cnc(-c2cccc(C(C)(C)O)c2)c(F)c1-n1c(C)cc(O[C@@H](C)c2ncc(F)cc2F)c(Cl)c1=O | 1.9 nM | 3780 nM | 1990 | 3230 ng·h/mL | 5 mL/min/kg | 0.9 L/kg | 2.2 h | 3 h | 1030 ng/mL | 8050 ng·h/mL | 125% | – |
| Cc1cnc(-c2cccc(C(C)(C)O)c2)c(F)c1-n1c(C)cc(OCc2ncc(F)cc2F)c(Cl)c1=O | 0.5 nM | 506 nM | 1010 | 1800 ng·h/mL | 10 mL/min/kg | 0.7 L/kg | 1.5 h | 1.2 h | 738 ng/mL | 1980 ng·h/mL | 55% | – |
| Cc1cnc(-c2cccc(C(C)(C)O)c2F)cc1-n1c(C)cc(O[C@@H](C)c2ncc(F)cc2F)c(Cl)c1=O | 1.6 nM | 504 nM | 315 | – | – | – | – | – | – | – | – | – |
| Cc1cnc(-c2ccnc(C(C)(C)O)n2)cc1-n1c(C)cc(OCc2ncc(F)cc2F)c(Cl)c1=O [ZUNSEMETINIB] | 6.6 nM | 6410 nM | 971 | 1280 ng·h/mL | 13.1 mL/min/kg | 0.8 L/kg | 1.1 h | 1.1 h | 415 ng/mL | 1830 ng·h/mL | 71% | AUC(0-t) at 24 h [12]: 2230 ng·h/mL; clearance [13]: 7.5 mL/min/kg; Vd [14]: 1.5 L/kg; half-life [15]: 3.4 h; MRT [16]: 3.4 h; Cmax [17]: 587 ng/mL; AUC(0-t) at 24 h [18]: 3230 ng·h/mL; bioavailability [19]: 73%; inhibition (PBMC [20]): Active; inhibition (PBMC [21]): Active; inhibition (PBMC [22]): Active; solubility [23]: 5.6 µg/mL (≈ 10.9 µM); half-life [24]: 1.9 h; Cmax [25]: 217 ng/mL; AUC(0-t) at 24 h [26]: 682 ng·h/mL; half-life [27]: 1.6 h; Cmax [28]: 781 ng/mL; AUC(0-t) at 24 h [29]: 2520 ng·h/mL; Activity (Rattus norvegicus): inactive |
| Cc1cnc(-c2cccc(C(C)(C)O)c2F)c(F)c1-n1c(C)cc(OCc2ncc(F)cc2F)c(Cl)c1=O | – | 1 nM | 125 | 1080 ng·h/mL | 16.3 mL/min/kg | 1.1 L/kg | 0.9 h | 1.2 h | 283 ng/mL | 861 ng·h/mL | 40% | IC50 [30]: < 0.1 nM; IC50 [31]: 0.02 nM |
| Cc1cnc(-c2cccc(C(C)(C)O)c2F)c(F)c1-n1c(C)cc(O[C@@H](C)c2ncc(F)cc2F)c(C)c1=O | 1.6 nM | 394 nM | 246 | – | – | – | – | – | – | – | – | – |
| Cc1cnc(-c2cccc(C(C)(C)O)c2F)c(C)c1-n1c(C)cc(O[C@@H](C)c2ncc(F)cc2F)c(Cl)c1=O | 12.8 nM | 1400 nM | 109 | – | – | – | – | – | – | – | – | – |
| Cc1ccc(-c2ccnc(C(C)(C)O)n2)cc1-n1c(C)cc(OCc2ncc(F)cc2F)c(Cl)c1=O | 3.6 nM | 2900 nM | 805 | – | – | – | – | – | – | – | – | – |
| Cc1cnc(-c2ccnc(C(C)(C)O)n2)c(F)c1-n1c(C)cc(OCc2ncc(F)cc2F)c(C)c1=O | 4 nM | 5320 nM | 1330 | 1170 ng·h/mL | 13.9 mL/min/kg | 0.9 L/kg | 0.9 h | 1.1 h | 496 ng/mL | 1310 ng·h/mL | 56% | – |
| Cc1cnc(-c2cccc(C(C)(C)O)n2)cc1-n1c(C)cc(OCc2ncc(F)cc2F)c(Cl)c1=O | 3 nM | 999 nM | 333 | – | – | – | – | – | – | – | – | – |
| Cc1cnc(-c2cccc(C(C)(C)O)c2)cc1-n1c(C)cc(OCc2ncc(F)cc2F)c(Cl)c1=O | 5.3 nM | 1950 nM | 368 | – | – | – | – | – | – | – | – | – |
